Laboratory results as given in ChEMBL document CHEMBL4699597, “Tabernaesines A-I, Cytotoxic Aspidosperma-Aspidosperma-Type Bisindole Alkaloids from Tabernaemontana pachysiphon” (J Nat Prod, 2020).

What was measured:
Format in all cases: functional, cell-based
[1] = system: MDA-MB-231; assay: Cytotoxicity against human MDA-MB-231 cells assessed as reduction in cell viability after 72 hrs by MTT assay; details: MDA-MB-231, 72 h
[2] = system: SK-MEL-28; assay: Cytotoxicity against human SK-MEL-28 cells assessed as reduction in cell viability after 72 hrs by MTT assay; details: SK-MEL-28, 72 h
[3] = system: SW480; assay: Cytotoxicity against human SW480 cells assessed as reduction in cell viability after 72 hrs by MTT assay; details: SW480, 72 h
[4] = system: A549; assay: Cytotoxicity against human A549 cells assessed as reduction in cell viability after 72 hrs by MTT assay; details: A549, 72 h
[5] = system: HepG2; assay: Cytotoxicity against human HepG2 cells assessed as reduction in cell viability after 72 hrs by MTT assay; details: HepG2, 72 h
[6] = system: T47D; assay: Cytotoxicity against human T47D cells assessed as reduction in cell viability after 72 hrs by MTT assay

CC[C@@]12CC3=C4N(C[C@]5(C3)CN3CC[C@]67C(=C(C(=O)OC)C[C@@]8(CCO[C@@H]58)[C@H]36)Nc3ccccc37)c3ccccc3[C@@]43CCN(C[C@H]4O[C@H]41)[C@@H]23
IC50 [1]: > 10 µM | IC50 [2]: > 10 µM | IC50 [3]: > 10 µM | IC50 [4]: > 10 µM | IC50 [5]: > 10 µM | IC50 [6]: > 10 µM

CC[C@@]12C[C@H]3C[C@@]4(CN5CC[C@]67C(=C(C(=O)OC)C[C@@]8(CCO[C@@H]48)[C@H]56)Nc4ccccc47)CN4c5ccccc5[C@@]5(CCN(C[C@H](O)[C@H]1O)[C@@H]25)[C@]34O
IC50 [1]: > 10 µM | IC50 [2]: > 10 µM | IC50 [3]: > 10 µM | IC50 [4]: > 10 µM | IC50 [5]: > 10 µM | IC50 [6]: > 10 µM

CC[C@@]12C[C@H]3C[C@]4(CN5CC[C@]67C(=C(C(=O)OC)C[C@@]8(CCO[C@@H]48)[C@H]56)Nc4ccccc47)CN4c5ccccc5[C@@]5(CCN(C[C@H](O)[C@H]1O)[C@@H]25)[C@H]34
IC50 [1]: > 10 µM | IC50 [2]: 6.7 µM | IC50 [3]: 7.8 µM | IC50 [4]: > 10 µM | IC50 [5]: 2.5 µM | IC50 [6]: 8.7 µM

COC(=O)C1=C2Nc3ccccc3[C@@]23CCN2C[C@]4(C[C@@H]5C[C@]67CC(=O)O[C@H]6CCN6CC[C@@]8(c9cccc(OC)c9N(C4)[C@@H]58)[C@@H]67)[C@@H]4OCC[C@]4(C1)[C@H]23 [DEOXYVOBSTUSINE LACTONE]
IC50 [1]: > 10 µM | IC50 [2]: > 10 µM | IC50 [3]: > 10 µM | IC50 [4]: > 10 µM | IC50 [5]: > 10 µM | IC50 [6]: > 10 µM

CC[C@]1(O)C[C@@H]2CN(CCc3c([nH]c4ccccc34)[C@@](C(=O)OC)(c3cc4c(cc3OC)N(C)[C@H]3[C@@](O)(C(=O)OC)[C@H](OC(C)=O)[C@]5(CC)C=CCN6CC[C@]43[C@@H]65)C2)C1 [VINBLASTINE]
IC50 [1]: 0.0425 µM | IC50 [2]: 0.0733 µM | IC50 [3]: 0.0325 µM | IC50 [4]: 0.021 µM | IC50 [5]: 0.0093 µM | IC50 [6]: 0.0103 µM

CC[C@@]12C[C@H]3C[C@@]4(CN5CC[C@]67C(=C(C(=O)OC)C[C@@]8(CCO[C@@H]48)[C@H]56)Nc4ccccc47)CN4c5ccccc5[C@@]5(CCN(C[C@H](O)[C@H]1O)[C@@H]25)[C@H]34
IC50 [1]: > 10 µM | IC50 [2]: > 10 µM | IC50 [3]: > 10 µM | IC50 [4]: > 10 µM | IC50 [5]: > 10 µM | IC50 [6]: > 10 µM

CCN(CC)Cc1ccc2c(c1O)N1C[C@]3(C[C@@H]4C[C@]56CC(=O)O[C@H]5CCN5CC[C@@]2([C@@H]56)[C@]41O)CN1CC[C@]24C(=C(C(=O)OC)C[C@@]5(CCO[C@@H]35)[C@H]12)Nc1ccccc14
IC50 [1]: > 10 µM | IC50 [2]: > 10 µM | IC50 [3]: > 10 µM | IC50 [4]: > 10 µM | IC50 [5]: > 10 µM | IC50 [6]: > 10 µM

CC[C@@]12C[C@H]3C[C@]4(CN5CC[C@]67C(=C(C(=O)OC)C[C@@]8(CCO[C@@H]48)[C@H]56)Nc4ccccc47)CN4c5ccccc5[C@@]5(CCN(C[C@H]6O[C@H]61)[C@@H]25)[C@H]34
IC50 [1]: > 10 µM | IC50 [2]: > 10 µM | IC50 [3]: > 10 µM | IC50 [4]: > 10 µM | IC50 [5]: > 10 µM | IC50 [6]: > 10 µM

COC(=O)C1=C2Nc3ccccc3[C@@]23CCN2C[C@]4(C[C@@H]5C[C@]67CC(=O)O[C@H]6CCN6CC[C@@]8(c9cccc(O)c9N(C4)[C@@]58O)[C@@H]67)[C@@H]4OCC[C@]4(C1)[C@H]23
IC50 [1]: > 10 µM | IC50 [2]: > 10 µM | IC50 [3]: > 10 µM | IC50 [4]: > 10 µM | IC50 [5]: > 10 µM | IC50 [6]: > 10 µM

COC(=O)C1=C2Nc3ccccc3[C@@]23CCN2C[C@]4(C[C@@H]5C[C@]67CC(=O)O[C@H]6CCN6CC[C@@]8(c9cccc(OC)c9N(C4)[C@@]58O)[C@@H]67)[C@@H]4OCC[C@]4(C1)[C@H]23
IC50 [1]: > 10 µM | IC50 [2]: > 10 µM | IC50 [3]: > 10 µM | IC50 [4]: > 10 µM | IC50 [5]: > 10 µM | IC50 [6]: > 10 µM

CC[C@@]12C[C@H]3C[C@]4(CN5CC[C@]67C(=C(C(=O)OC)C[C@@]8(CCO[C@@H]48)[C@H]56)Nc4ccccc47)CN4c5ccccc5[C@@]5(CCN(C[C@H]6O[C@H]61)[C@@H]25)[C@]34O
IC50 [1]: > 10 µM | IC50 [2]: 6.4 µM | IC50 [3]: 7.2 µM | IC50 [4]: > 10 µM | IC50 [5]: 9.6 µM | IC50 [6]: 5.5 µM

CC[C@@]12C[C@H]3C[C@]4(CN5CC[C@]67C(=C(C(=O)OC)C[C@@]8(CCO[C@@H]48)[C@H]56)Nc4ccccc47)CN4c5ccccc5[C@@]5(CCN(C[C@H](O)[C@H]1O)[C@@H]25)[C@]34O
IC50 [1]: > 10 µM | IC50 [2]: > 10 µM | IC50 [3]: > 10 µM | IC50 [4]: > 10 µM | IC50 [5]: > 10 µM | IC50 [6]: 9.5 µM

CC[C@@]12C[C@H]3C[C@@]4(CN5CC[C@]67C(=C(C(=O)OC)C[C@@]8(CCO[C@@H]48)[C@H]56)Nc4ccccc47)CN4c5ccccc5[C@@]5(CCN(C[C@H]6O[C@H]61)[C@@H]25)[C@H]34
IC50 [1]: > 10 µM | IC50 [2]: > 10 µM | IC50 [3]: > 10 µM | IC50 [4]: > 10 µM | IC50 [5]: > 10 µM | IC50 [6]: > 10 µM

CCN(CC)Cc1ccc2c(c1O)N1C[C@]3(C[C@@H]4C[C@]56CCO[C@H]5CCN5CC[C@@]2([C@@H]56)[C@]41O)CN1CC[C@]24C(=C(C(=O)OC)C[C@@]5(CCO[C@@H]35)[C@H]12)Nc1ccccc14
IC50 [1]: > 10 µM | IC50 [2]: 8.3 µM | IC50 [3]: > 10 µM | IC50 [4]: > 10 µM | IC50 [5]: 7.4 µM | IC50 [6]: > 10 µM

CC[C@@]12C[C@H]3C[C@@]4(CN5CC[C@]67C(=C(C(=O)OC)C[C@@]8(CCO[C@@H]48)[C@H]56)Nc4ccccc47)CN4c5ccccc5[C@@]5(CCN(C[C@H]6O[C@H]61)[C@@H]25)[C@]34O
IC50 [1]: 8.3 µM | IC50 [2]: > 10 µM | IC50 [3]: > 10 µM | IC50 [4]: > 10 µM | IC50 [5]: > 10 µM | IC50 [6]: > 10 µM

CC[C@@]12C[C@H]3C[C@@]4(CN5c6ccccc6[C@@]6(CCN(C[C@H]7O[C@H]71)[C@@H]26)[C@H]35)C(=O)N1CC[C@]23C(=C(C(=O)OC)C[C@@]5(CCO[C@@H]45)[C@H]12)Nc1ccccc13
IC50 [1]: > 10 µM | IC50 [2]: 6.8 µM | IC50 [3]: 9.8 µM | IC50 [4]: > 10 µM | IC50 [5]: 6.3 µM | IC50 [6]: 9.8 µM

CC[C@@]12C[C@]3(CC4=C5N(C3)c3ccccc3[C@@]53CCN5C[C@H]6O[C@H]6[C@@](CC)(C4)[C@H]53)C3=Nc4ccccc4[C@@]34CCN(C[C@H]3O[C@H]31)[C@@H]24
IC50 [1]: > 10 µM | IC50 [2]: > 10 µM | IC50 [3]: > 10 µM | IC50 [4]: > 10 µM | IC50 [5]: > 10 µM | IC50 [6]: > 10 µM

COC(=O)C1=C2Nc3ccccc3[C@@]23CCN2CC(CC4=C[C@@]5(CCO)CC(C(=O)OC)=C6Nc7ccccc7[C@@]67CCN(C4)[C@@H]57)=C[C@@](CCO)(C1)[C@H]23
IC50 [1]: > 10 µM | IC50 [2]: > 10 µM | IC50 [3]: > 10 µM | IC50 [4]: > 10 µM | IC50 [5]: > 10 µM | IC50 [6]: > 10 µM

COC(=O)C1=C2Nc3ccccc3[C@@]23CCN2C[C@]4(C[C@@H]5C[C@]67CCO[C@H]6CCN6CC[C@@]8(c9cccc(OC)c9N(C4)[C@@]58O)[C@@H]67)[C@@H]4OCC[C@]4(C1)[C@H]23
IC50 [1]: > 10 µM | IC50 [2]: > 10 µM | IC50 [3]: > 10 µM | IC50 [4]: > 10 µM | IC50 [5]: > 10 µM | IC50 [6]: > 10 µM
